Laboratory results as given in patent US9522139B2, “Fructose 1, 6-biphosphatases as new targets for diagnosing and treating breast cancer brain metastasis” (The University of Houston System, priority 2011, dated 2016).

Key:
[1] = tested on: MDA-MB-231Br3 cells; experiment: Resistance to chemotherapeutic reagents, brain metastatic vs parental cells (FIG. 1A); format: cell-based; settings: MDA-MB-231Br3 vs parental MDA-MB-231, triplicates
[2] = tested on: MDA-MB-231Br3 cells; experiment: Cell survival assay (trypan blue uptake) in glucose-free medium; format: cell-based
Procedure: By way of non-limiting example, to test the role of BCAAs in the survival of brain metastatic breast cancer cells, changes in the concentrations of BCAAs over time can be measured in MDA-MB-231 and MDA-MB-231Br3 cells when cultured in a glucose-free medium. […] To measure the ability of these two types of cells to oxidize BCAAs, ^14C-Leucine can be added to the culture media and the resulting ^14CO2 measured after 8 hours of incubation. […] To investigate the mechanism by which brain metastatic cells gain such higher activity of BCAA oxidation, the levels of the rate limiting enzymes of BCAA oxidation, branched chain ketoacids dehydrogenase E1 subunit (BCKDH-E1), the inactivated form of BCKDH-E1, pSer293-BCDKH-E1 (phosphorylated at serine 293 of the E1 subunit), the BCKDH inactivating kinase, and the branched chain ketoacids dehydrogenase kinase (BDK) can be determined in both brain metastatic cells and parental cells. […] Also, to test the pro-survival role of BCAAs in MDA-MB-231Br3 cells, BCAAs can be removed from the glucose-free medium containing glutamine. […] For these tests, trypanblue uptake can used to identify dead cells, and triplicates of samples can be used in each group.
Cells were seeded in 6-well plates in full MEM medium containing 5% dialyzed FBS and supplemented with 100 IU/ml penicillin and 100 μg/ml streptomycin (Invitrogen, CA, USA) and 292 ug/ml L-Glutamine (Invitrogen, CA, USA). Medium were replaced with modified MEM after 12 hours. Modified MEM contains basic formula of 5% dialyzed FBS and 100 IU/ml penicillin and 100 μg/ml streptomycin, other supplements like glutamine, glucose, etc. were added in the basic formula according to different needs of experimental groups. Both cell culture medium and trysinized cells were collected after 48 hours and stained with trypan blue. Viability counting was counted by Countess® Automated Cell Counter (Invitrogen, CA, USA).

Row | Structure (SMILES) | resistance of MDA-MB-231Br3 cells to chemotherapeutic reagent relative to parental cells [1] | cell death upon inhibition of GLUD ([2]; MDA-MB-231Br3 cells cultured in glucose-free medium, trend reverted upon addition of α-KG, FIG. 2D) | effect of incremental removal of BCAAs on sensitivity to GLUD inhibition ([2]; MDA-MB-231Br3 cells, glucose-free medium, 24 hour treatment, FIG. 3G) | sensitivity to GLUD inhibition, brain metastatic cells vs parental MDA-MB-231 cells ([2]; in the absence of glucose, FIG. 2D)
1 | COc1cccc2c1C(=O)c1c(O)c3c(c(O)c1C2=O)C[C@@](O)(C(=O)CO)C[C@@H]3O[C@H]1C[C@H](N)[C@H](O)[C@H](C)O1 [adriamycin] | more resistance | – | – | –
2 | CC(=O)O[C@H]1C(=O)[C@@]2(C)[C@H]([C@H](OC(=O)c3ccccc3)[C@]3(O)C[C@H](OC(=O)[C@H](O)[C@@H](NC(=O)c4ccccc4)c4ccccc4)C(C)=C1C3(C)C)[C@]1(OC(C)=O)CO[C@@H]1C[C@@H]2O [Taxol] | more resistance | – | – | –
3 | O=C(O[C@@H]1Cc2c(O)cc(O)cc2O[C@@H]1c1cc(O)c(O)c(O)c1)c1cc(O)c(O)c(O)c1 [EGCG, epigallocatechin gallate] | – | dose dependent cell death | significantly sensitizes | more sensitive
